In patent US3976695A, “Halogen substituted α-(aminoalkyl)-3,4-dihydroxybenzyl alcohols” (SmithKline Corporation, priority 1970, dated 1976):
Converted amounts (≈) assume the structure as drawn.

Columns and labels:
[1] = system: guinea pig tracheal chain preparations; experiment: relaxation of spontaneous tone of guinea pig tracheal chain (ring) preparation, β-stimulant effect on airway smooth muscle; details: for absolute separation ratio: atrial ED25 versus tracheal ED50, in vitro guinea pig preparations
Description: (§1) Two in vitro test systems used for determining selective β-stimulant activity are: (1) effect on spontaneous tone of guinea pig tracheal chain preparations as a measure of β-stimulant (direct relaxant) effect on airway smooth muscle, and (2) effect on rate of spontaneously beating right atria of the guinea pig as a measure if β-stimulant effect on cardiac muscle.

[2] = system: right atria of the guinea pig; experiment: rate of spontaneously beating guinea pig right atria, β-stimulant effect on cardiac muscle; details: Cavia porcellus, in vitro, read-out: ED25, increasing the rate of contraction of guinea pig right atria
Description: as §1

SMILES	EC50 ([1]; Cavia porcellus, in vitro, guinea pig tracheal ring preparation, read-out: ED50, relaxes the spontaneous tone of guinea pig tracheal ring preparation)	absolute separation ratio [1]	improvement of absolute separation ratio compared to d, 1-isoproterenol ([1]; versus d, 1-isoproterenol in similar in vitro preparations)	EC25 [2]
CC(C)NCC(O)c1ccc(O)c(O)c1Cl (stereo not drawn) [2-chloro-3,4-dihydroxy-α-(isopropylaminomethyl)-benzyl alcohol]	0.23 ng/mL (≈ 0.936 nM)	7	14 fold	1.6 ng/mL (≈ 6.51 nM)
CC(C)NCC(O)c1ccc(O)c(O)c1 (centres unmarked) [d, 1-isoproterenol, reference compound]	–	0.5	–	–
